The record followed here is article PMC4356374, “Structural characterization of substrate and inhibitor binding to farnesyl pyrophosphate synthase from Pseudomonas aeruginosa” (Acta Crystallographica Section D: Biological Crystallography, 2015).

Data set [1] addresses T1, farnesyl pyrophosphate synthase (PaFPPS, PA4043) (Pseudomonas aeruginosa, UniProt Q9HWY4).
T1 construct: gene ispA; full-length, 295 amino acids, His tag cleaved with TEV
Nature of the data set: X-ray crystal structure at […] Å (also with GPP, 3zou); DSF shift […] °C; no significant inhibition at […]. The class given is binding.

The target of data set [2] is T2, farnesyl pyrophosphate synthase (PaFPPS, PA4043) (Pseudomonas aeruginosa, UniProt Q9HWY4).
T2 construct: gene ispA; full-length, 295 amino acids
T2 sequence (Q9HWY4 1-295): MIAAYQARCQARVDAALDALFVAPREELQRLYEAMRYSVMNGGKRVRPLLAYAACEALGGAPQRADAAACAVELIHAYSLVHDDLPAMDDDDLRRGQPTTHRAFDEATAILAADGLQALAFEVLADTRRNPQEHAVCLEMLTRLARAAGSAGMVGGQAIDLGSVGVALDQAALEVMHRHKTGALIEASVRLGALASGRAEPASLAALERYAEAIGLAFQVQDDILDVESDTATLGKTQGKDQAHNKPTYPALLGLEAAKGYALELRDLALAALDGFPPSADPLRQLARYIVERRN
The experiment in a line: turnover with GPP by the purified enzyme, pyrophosphatase-coupled malachite green assay (kcat […] s^-1; no inhibition implied). The class given is biochemical.

Data set [3] concerns the molecule itself. Nature of the data set: crystal structure; sitting-drop vapour diffusion, 25 mg/ml protein; native: 20% PEG 3350, 0.2 M NaF, 0.1 M bis-tris propane pH 6.5; asymmetric unit holds a dimer related by a twofold noncrystallographic axis; 1.55 A.

Regarding `O=C(O)CCn1c(=O)oc2ccccc21` [SPB02696, 3-[2-hydrozybenzo[d]oxazol-3(2H)-yl]propanoic acid], the “X-ray crystal structure at 1.90 Å (also with GPP, 3zou); DSF shift 2.8 °C; no si” value in data set [1] is listed as “we describe the details of the enzyme–ligand interactions for fragment hit SPB02696 (termed 6H6 in the deposited coordinate file)”.

For the molecule `C=C(C)CCO[P@@](=O)(O)OP(=O)(O)O` [isopentenyl pyrophosphate], the “turnover with GPP by the purified enzyme, pyrophosphatase-coupled malachite gree” value in data set [2] is “no reaction took place without both IPP and GPP being present”.

B1: farnesyl pyrophosphate synthase from Pseudomonas aeruginosa PAO1 (locus PA4043) (enzyme, UniProt Q9HWY4 1-295, looked up)
chain: T2 sequence (Q9HWY4 1-295)
notes: farnesyl pyrophosphate synthase, P. aeruginosa PAO1, locus PA4043; open reading frame amplified from the genome; protein of 295 amino acids; residues Ala227-Gly254 (loop-HI) disordered in all structures; Vector pNIC28-Bsa4 with N-terminal six-histidine tag and TEV site; the tag is cleaved in the purification; The ESI-MS mass of 34 017.5 Da was of the protein with the His tag; also called PaFPPS; …
Take B1: in data set [3], the stoichiometry N (usually the number of molecules, sites or subunits per partner or assembly) came out at 2.
